Here are results for six compounds from US20220273530A1, “BIOADHESIVE PARTICLES COMPRISING ACTIVE AGENTS, AND USES THEREOF” (SKINOSIVE, priority 2019, published 2022).

SMILES strings stand for the structures.

The conditions of series [1]: cited from earlier work.
Series [2] is described as follows: λmax UV absorbance of free and encapsulated UV filter. The class given is physicochemical. Particulars: free UV filter in ethanol. As to the method: λmax UV absorbance of free Uvinul A plus in ethanol was measured at 357 nm and λmax UV absorbance of Uvinul A plus encapsulated PLA-PEG-Mal particles in water was measured at 360 nm.

For the compound `CCCCC(CC)COc1ccc(-c2nc(-c3ccc(OC)cc3)nc(-c3ccc(OCC(CC)CCCC)cc3O)n2)c(O)c1` (centres unmarked) [Bemotrizinol, bis-ethylhexyloxyphenol methoxyphenyl triazine], the “UV filter logP” value in series [1] was 10.4.

`CC1CCC(C(C)C)C(OC(=O)c2ccccc2N)C1` (centres unmarked) [Meradimate]: in series [1], the “UV filter logP” value is on record as 5.1.

In the case of `CCCCC(CC)COC(=O)c1ccccc1O` (centres unmarked) [Octisalate], the “UV filter logP” value in series [1] is on record as 5.7.

Consider `CCCCC(CC)COC(=O)C(C#N)=C(c1ccccc1)c1ccccc1` (centres unmarked) [Octocrylene], for which, in series [2], the “λmax UV absorbance of free UV filter” value came to 304 nm. In addition, the “UV filter logP” value in series [1] is given as 7.1.

`COc1cc(O)c(C(=O)c2ccccc2)cc1S(=O)(=O)O` [Sulisobenzone]: the “UV filter logP” value in series [1] is 2.2.

Turning to `CCCCCCOC(=O)c1ccccc1C(=O)c1ccc(N(CC)CC)cc1O` [Uvinul A Plus, diethylamino hydroxybenzoyl hexyl benzoate], the “λmax UV absorbance of free UV filter” value in series [2] is reported as 357 nm. Besides, in series [1], the “UV filter logP” value is on record as 6.5.
